Tests used:
[1] = Enzalutamide and N-desmethyl enzalutamide trough plasma PK (LC–MS/MS); conditions: for ENZAdm Cmin D1: 24 h sample relative to Cmin D0; for ENZAdm Cmin D1 / ENZAdm Cmin D0: geometric mean (geometric SD); for ENZAdm Cmin D0: pre 1st venetoclax sample on day 1
Protocol: Additional samples were collected prior to dosing on days 8, 15, 21, and 57 (Fig. 1A). Samples were centrifuged at approximately 1,000 × g, and plasma was stored at −70 °C or colder until analysis.
Plasma PK parameters were derived from the data by non-compartmental methods with WinNonlin (Certara, Princeton, NJ). Statistical analyses for PK parameter values were performed using SPSS 27.0 for Windows (SPSS Inc., Chicago, IL). Within patient variability in Cmin was calculated from the day 8 through day 57 data across doses by calculating 100 × the square root of the mean square within groups obtained after ANOVA of log-transformed values of these parameters with subject as a factor.

[2] = cited from earlier work
[3] = system: AR−/lo LAPC9-CRPC; set-up: method as in PMID 30190514; conditions: single agent; cited from earlier work
[4] = system: CYP3A4; conditions: a sensitive CYP3A4 substrate; cited from earlier work

| Intrapatient variability in Cmin ([1]; male, human, in vivo) [%CV] | ENZA Cmin D1 ([1]; male, human, in vivo, 24 h) | Compound | Intrapatient variability in Cmin ([1]; N-desmethyl enzalutamide, from day 1 through 57) [%CV] | ENZAdm Cmin D1 ([1]; venetoclax 400 mg (N=3)) | ENZAdm Cmin D0 ([1]; venetoclax 400 mg (N=3)) | ENZAdm Cmin D1 ([1]; venetoclax 600 mg (N=3)) | ENZAdm Cmin D0 ([1]; venetoclax 600 mg (N=3)) | ENZAdm Cmin D1 ([1]; venetoclax 800 mg (N=4)) | N-desmethyl enzalutamide concentration in previous reports [2] [µg/L] | Growth of AR−/lo LAPC9-CRPC [3] | Increase in oral clearance of midazolam [4] | Enzalutamide concentration in previous reports [2] [µg/L] |
| --- | --- | --- | --- | --- | --- | --- | --- | --- | --- | --- | --- | --- |
|  |  | CC1(C)C(=O)N(c2ccc(C#N)c(C(F)(F)F)c2)C(=S)N1c1ccc(C(N)=O)c(F)c1 [N-desmethyl enzalutamide] | 10 | 7.59 (1.34) µg/mL | 7.04 (1.31) µg/mL | 15.1 (1.12) µg/mL | 15.2 (1.07) µg/mL | 14.2 (1.21) µg/mL | 13 |  |  |  |
| 7.0 | 12.4 (1.19) µg/mL | CNC(=O)c1ccc(N2C(=S)N(c3ccc(C#N)c(C(F)(F)F)c3)C(=O)C2(C)C)cc1F [enzalutamide] |  |  |  |  |  |  |  | not | sevenfold | 11.4 |

From paper PMC12662848 (Cancer Chemotherapy and Pharmacology, 2025)
